Source: patent publication US11969428B2, “Methods and pharmaceutical compositions for treating lymphoid malignancy” (priority 2011, dated 2024)

Assays:
Assay in all cases: Ambit KinomeScan screening
Format in all cases: binding
Details in all cases: CAL-130 10 μM
ABL1(T315I) = molecular target: T1, ABL1(T315I) (Homo sapiens, UniProt P00519, T315I)
T1 construct: unspecified tag ("tagged kinases"); purchased Ambit (KinomeScan screening)
How it was run: (§1)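 Here, % of control binding was determined for tagged kinases captured by an immobilized ligand in the presence of 10 μM CAL-130. Stronger interactions give lower percentages.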

ASK1 = molecular target: T2, ASK1 (Homo sapiens, UniProt Q99683)
T2 construct: purchased Ambit (KinomeScan screening service)
How it was run: as §1

BLK = molecular target: T3, BLK (Homo sapiens, UniProt P51451)
T3 construct: purchased Ambit (KinomeScan screening service)
How it was run: as §1

CAMKK2 = molecular target: T4, CAMKK2 (Homo sapiens, UniProt Q96RR4)
T4 construct: purchased Ambit (KinomeScan screening)
How it was run: as §1

CDK3 = molecular target: T5, CDK3 (Homo sapiens, UniProt Q00526)
T5 construct: purchased Ambit (KinomeScan screening)
How it was run: as §1

CDK9 = molecular target: T6, CDK9 (Homo sapiens, UniProt P50750)
T6 construct: purchased Ambit (KinomeScan screening service)
How it was run: as §1

CDKL3 = molecular target: T7, CDKL3 (Homo sapiens, UniProt Q8IVW4)
T7 construct: purchased Ambit (KinomeScan screening service)
How it was run: as §1

CSF1R = molecular target: T8, CSF1R (Homo sapiens, UniProt P07333)
T8 construct: purchased Ambit (KinomeScan screening service)
How it was run: as §1

CSNK2A2 = molecular target: T9, CSNK2A2 (Homo sapiens, UniProt P19784)
T9 construct: purchased Ambit (KinomeScan screening service)
T9 sequence (P19784 whole entry): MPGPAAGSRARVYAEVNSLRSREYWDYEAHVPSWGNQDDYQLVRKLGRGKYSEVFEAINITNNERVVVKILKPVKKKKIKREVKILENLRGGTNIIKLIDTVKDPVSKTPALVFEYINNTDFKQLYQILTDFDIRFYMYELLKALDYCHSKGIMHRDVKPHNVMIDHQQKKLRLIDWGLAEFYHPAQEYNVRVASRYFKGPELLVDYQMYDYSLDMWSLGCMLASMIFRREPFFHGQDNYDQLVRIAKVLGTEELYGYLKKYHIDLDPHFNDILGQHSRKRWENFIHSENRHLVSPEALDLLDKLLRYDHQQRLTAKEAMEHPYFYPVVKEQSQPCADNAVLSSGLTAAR
How it was run: as §1

EGFR(G719C) = molecular target: T10, EGFR(G719C) (Homo sapiens, UniProt P00533, G719C)
T10 construct: unspecified tag; purchased Ambit (KinomeScan screening service)
How it was run: as §1

FLT3(N841I) = molecular target: T11, FLT3(N841I) (Homo sapiens, UniProt P36888, N841I)
T11 construct: unspecified tag; purchased Ambit (KinomeScan screening service)
How it was run: as §1

GAK = molecular target: T12, GAK (Homo sapiens, UniProt O14976)
T12 construct: unspecified tag ('tagged kinases'); purchased Ambit (KinomeScan screening service)
How it was run: as §1

GSK3B = molecular target: T13, GSK3B (Homo sapiens, UniProt P49841)
T13 construct: unspecified tag ('tagged kinases'); purchased Ambit (KinomeScan screening service)
How it was run: as §1

INSR = molecular target: T14, INSR (Homo sapiens, UniProt P06213)
T14 construct: Ambit (KinomeScan screening)
How it was run: as §1

JNK3 = molecular target: T15, JNK3 (Homo sapiens, UniProt P53779)
T15 construct: purchased Ambit (KinomeScan screening)
T15 sequence (P53779 whole entry): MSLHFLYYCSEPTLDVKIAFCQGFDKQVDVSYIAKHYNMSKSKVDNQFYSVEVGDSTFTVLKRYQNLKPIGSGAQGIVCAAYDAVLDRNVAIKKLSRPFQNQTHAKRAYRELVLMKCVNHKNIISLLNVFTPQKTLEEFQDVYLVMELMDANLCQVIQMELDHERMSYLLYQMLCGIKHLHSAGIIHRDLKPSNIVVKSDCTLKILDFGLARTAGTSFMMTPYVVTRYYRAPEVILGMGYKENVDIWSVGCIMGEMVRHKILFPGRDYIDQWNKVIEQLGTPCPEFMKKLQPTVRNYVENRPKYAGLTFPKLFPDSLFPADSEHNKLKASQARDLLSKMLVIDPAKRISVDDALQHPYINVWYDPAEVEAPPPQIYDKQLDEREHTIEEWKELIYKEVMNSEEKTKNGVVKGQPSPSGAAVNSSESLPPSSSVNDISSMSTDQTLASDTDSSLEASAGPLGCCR
How it was run: as §1

LATS1 = molecular target: T16, LATS1 (Homo sapiens, UniProt O95835)
T16 construct: unspecified tag ('tagged kinases'); purchased Ambit (KinomeScan screening service)
How it was run: as §1

LZK = molecular target: T17, LZK (Homo sapiens, UniProt O43283)
T17 construct: unspecified tag ('tagged kinases'); purchased Ambit (KinomeScan screening service)
How it was run: as §1

MST4 = molecular target: T18, MST4 (Homo sapiens, UniProt Q9P289)
T18 construct: unspecified tag; purchased Ambit (KinomeScan screening panel)
How it was run: as §1

MYO3A = molecular target: T19, MYO3A (Homo sapiens, UniProt Q8NEV4)
T19 construct: unspecified tag; purchased Ambit (KinomeScan screening panel)
T19 sequence (Q8NEV4 whole entry): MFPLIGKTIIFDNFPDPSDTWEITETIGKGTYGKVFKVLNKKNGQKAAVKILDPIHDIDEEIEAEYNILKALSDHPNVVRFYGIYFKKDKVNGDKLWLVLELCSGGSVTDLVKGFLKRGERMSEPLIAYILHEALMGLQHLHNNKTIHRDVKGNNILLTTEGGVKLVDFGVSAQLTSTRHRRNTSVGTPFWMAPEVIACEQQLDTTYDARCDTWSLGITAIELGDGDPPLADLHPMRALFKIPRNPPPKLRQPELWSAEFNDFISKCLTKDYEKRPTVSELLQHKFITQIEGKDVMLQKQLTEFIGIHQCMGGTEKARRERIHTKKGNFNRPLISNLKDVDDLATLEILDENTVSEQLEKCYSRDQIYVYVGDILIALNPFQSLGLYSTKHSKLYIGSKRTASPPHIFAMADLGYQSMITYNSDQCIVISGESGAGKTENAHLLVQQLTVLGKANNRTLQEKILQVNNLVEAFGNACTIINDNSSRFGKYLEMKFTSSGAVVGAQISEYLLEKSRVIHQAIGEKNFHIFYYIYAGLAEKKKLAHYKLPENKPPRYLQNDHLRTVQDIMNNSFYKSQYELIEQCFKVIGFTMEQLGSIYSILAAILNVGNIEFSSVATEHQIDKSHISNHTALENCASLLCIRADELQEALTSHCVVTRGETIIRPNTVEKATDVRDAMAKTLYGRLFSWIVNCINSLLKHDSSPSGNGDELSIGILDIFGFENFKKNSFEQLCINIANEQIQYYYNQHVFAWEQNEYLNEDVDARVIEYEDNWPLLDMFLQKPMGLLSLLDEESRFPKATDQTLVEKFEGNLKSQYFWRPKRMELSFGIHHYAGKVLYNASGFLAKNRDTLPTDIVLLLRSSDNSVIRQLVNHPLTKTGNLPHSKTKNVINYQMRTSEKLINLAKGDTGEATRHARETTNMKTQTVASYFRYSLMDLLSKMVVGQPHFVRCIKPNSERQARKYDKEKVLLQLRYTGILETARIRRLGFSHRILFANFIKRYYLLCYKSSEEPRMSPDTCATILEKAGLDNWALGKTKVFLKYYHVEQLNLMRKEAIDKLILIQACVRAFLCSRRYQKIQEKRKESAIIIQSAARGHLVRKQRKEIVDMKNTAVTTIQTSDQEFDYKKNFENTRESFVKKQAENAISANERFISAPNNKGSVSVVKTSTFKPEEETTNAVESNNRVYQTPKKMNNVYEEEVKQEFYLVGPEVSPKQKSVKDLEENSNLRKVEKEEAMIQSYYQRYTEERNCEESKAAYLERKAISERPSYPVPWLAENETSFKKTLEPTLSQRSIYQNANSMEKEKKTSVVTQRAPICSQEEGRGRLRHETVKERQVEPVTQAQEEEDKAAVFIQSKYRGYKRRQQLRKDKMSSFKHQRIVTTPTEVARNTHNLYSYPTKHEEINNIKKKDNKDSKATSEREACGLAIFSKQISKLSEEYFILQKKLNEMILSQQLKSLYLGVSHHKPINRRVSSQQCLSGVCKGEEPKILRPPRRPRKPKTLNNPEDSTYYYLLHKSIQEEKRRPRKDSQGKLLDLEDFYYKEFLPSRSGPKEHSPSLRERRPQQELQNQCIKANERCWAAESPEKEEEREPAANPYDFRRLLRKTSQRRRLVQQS
How it was run: as §1

NEK9 = molecular target: T20, NEK9 (Homo sapiens, UniProt Q8TD19)
T20 construct: purchased Ambit (KinomeScan screening service)
T20 sequence (Q8TD19 whole entry): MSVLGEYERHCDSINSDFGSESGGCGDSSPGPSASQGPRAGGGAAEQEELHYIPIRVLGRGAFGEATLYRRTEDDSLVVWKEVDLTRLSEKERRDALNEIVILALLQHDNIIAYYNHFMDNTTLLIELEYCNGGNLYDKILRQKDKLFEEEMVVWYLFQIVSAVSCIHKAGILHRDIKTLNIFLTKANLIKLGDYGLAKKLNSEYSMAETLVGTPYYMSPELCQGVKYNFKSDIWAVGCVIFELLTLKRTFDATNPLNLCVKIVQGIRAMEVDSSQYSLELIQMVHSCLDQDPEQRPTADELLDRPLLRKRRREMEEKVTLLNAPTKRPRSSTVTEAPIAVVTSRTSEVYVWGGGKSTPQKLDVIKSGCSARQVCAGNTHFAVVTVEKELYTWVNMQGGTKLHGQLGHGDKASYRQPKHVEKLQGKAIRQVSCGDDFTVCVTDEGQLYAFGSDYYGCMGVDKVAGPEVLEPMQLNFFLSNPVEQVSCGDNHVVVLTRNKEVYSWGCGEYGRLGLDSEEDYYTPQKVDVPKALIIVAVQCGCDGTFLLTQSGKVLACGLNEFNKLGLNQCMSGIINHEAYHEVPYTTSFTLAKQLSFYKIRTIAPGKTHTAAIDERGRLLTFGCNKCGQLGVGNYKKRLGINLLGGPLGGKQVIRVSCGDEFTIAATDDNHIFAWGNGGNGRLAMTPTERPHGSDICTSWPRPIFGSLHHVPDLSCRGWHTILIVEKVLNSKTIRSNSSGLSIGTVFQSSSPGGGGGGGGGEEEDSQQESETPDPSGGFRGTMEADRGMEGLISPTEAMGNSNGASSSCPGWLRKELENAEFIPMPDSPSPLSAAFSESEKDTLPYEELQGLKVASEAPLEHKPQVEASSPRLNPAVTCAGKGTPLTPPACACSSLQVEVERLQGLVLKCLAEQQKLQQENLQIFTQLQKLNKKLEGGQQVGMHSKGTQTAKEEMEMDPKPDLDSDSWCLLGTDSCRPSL
How it was run: as §1

PAK1 = molecular target: T21, PAK1 (Homo sapiens, UniProt Q13153)
T21 construct: purchased Ambit (KinomeScan screening service)
T21 sequence (Q13153 whole entry): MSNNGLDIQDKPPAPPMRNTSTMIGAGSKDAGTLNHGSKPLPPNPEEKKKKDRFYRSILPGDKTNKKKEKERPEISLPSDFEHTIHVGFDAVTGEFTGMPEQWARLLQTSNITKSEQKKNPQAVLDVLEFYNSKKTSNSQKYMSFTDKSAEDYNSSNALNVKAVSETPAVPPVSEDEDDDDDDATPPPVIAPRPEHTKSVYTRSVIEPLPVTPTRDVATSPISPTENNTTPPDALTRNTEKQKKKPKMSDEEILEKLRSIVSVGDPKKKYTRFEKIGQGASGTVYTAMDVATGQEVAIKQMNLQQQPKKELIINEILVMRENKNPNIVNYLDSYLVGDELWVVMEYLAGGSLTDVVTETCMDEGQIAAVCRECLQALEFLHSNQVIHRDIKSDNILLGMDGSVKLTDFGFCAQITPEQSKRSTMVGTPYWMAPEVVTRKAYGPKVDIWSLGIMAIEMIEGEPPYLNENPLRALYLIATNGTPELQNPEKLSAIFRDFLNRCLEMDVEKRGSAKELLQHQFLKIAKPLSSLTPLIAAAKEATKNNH
How it was run: as §1

PHKG2 = molecular target: T22, PHKG2 (Homo sapiens, UniProt P15735)
T22 construct: unspecified tag ('tagged kinases'); purchased Ambit (KinomeScan screening)
How it was run: as §1

PLK3 = molecular target: T23, PLK3 (Homo sapiens, UniProt Q9H4B4)
T23 construct: purchased Ambit (KinomeScan screening service)
How it was run: as §1

RPS6KA2 = molecular target: T24, RPS6KA2 (Homo sapiens, UniProt Q15349)
T24 construct: unspecified tag (tagged kinase); purchased Ambit (KinomeScan screening)
How it was run: as §1

SNARK = molecular target: T25, SNARK (Homo sapiens, UniProt Q9H093)
T25 construct: tag, kind not specified; purchased Ambit (KinomeScan screening service)
How it was run: as §1

SRPK2 = molecular target: T26, SRPK2 (Homo sapiens, UniProt P78362)
T26 construct: purchased Ambit (KinomeScan screening service)
How it was run: as §1

TGFBR2 = molecular target: T27, TGFBR2 (Homo sapiens, UniProt P37173)
T27 construct: unspecified tag (tagged kinase); purchased Ambit (KinomeScan screening)
T27 sequence (P37173 23-567): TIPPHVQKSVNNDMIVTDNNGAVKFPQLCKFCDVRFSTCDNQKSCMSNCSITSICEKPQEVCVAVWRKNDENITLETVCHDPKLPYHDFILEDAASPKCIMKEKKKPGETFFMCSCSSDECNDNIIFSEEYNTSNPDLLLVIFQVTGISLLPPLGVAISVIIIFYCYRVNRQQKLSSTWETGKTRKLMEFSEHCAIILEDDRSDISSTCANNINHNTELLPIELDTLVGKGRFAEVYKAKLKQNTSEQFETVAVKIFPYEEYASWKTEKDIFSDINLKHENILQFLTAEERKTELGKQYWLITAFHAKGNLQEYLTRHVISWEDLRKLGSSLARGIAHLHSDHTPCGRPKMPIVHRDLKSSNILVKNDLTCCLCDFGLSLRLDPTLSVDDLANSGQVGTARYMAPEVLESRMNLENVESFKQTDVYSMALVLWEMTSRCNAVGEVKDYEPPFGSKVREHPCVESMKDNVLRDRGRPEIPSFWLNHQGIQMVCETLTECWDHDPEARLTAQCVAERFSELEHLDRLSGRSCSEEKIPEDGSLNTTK
How it was run: as §1

TNK1 = molecular target: T28, TNK1 (Homo sapiens, UniProt Q13470)
T28 construct: unspecified tag (tagged kinase); purchased Ambit (KinomeScan screening)
How it was run: as §1

YANK3 = molecular target: T29, YANK3 (Homo sapiens, UniProt Q86UX6)
T29 construct: purchased Ambit (KinomeScan screening service)
T29 sequence (Q86UX6 whole entry): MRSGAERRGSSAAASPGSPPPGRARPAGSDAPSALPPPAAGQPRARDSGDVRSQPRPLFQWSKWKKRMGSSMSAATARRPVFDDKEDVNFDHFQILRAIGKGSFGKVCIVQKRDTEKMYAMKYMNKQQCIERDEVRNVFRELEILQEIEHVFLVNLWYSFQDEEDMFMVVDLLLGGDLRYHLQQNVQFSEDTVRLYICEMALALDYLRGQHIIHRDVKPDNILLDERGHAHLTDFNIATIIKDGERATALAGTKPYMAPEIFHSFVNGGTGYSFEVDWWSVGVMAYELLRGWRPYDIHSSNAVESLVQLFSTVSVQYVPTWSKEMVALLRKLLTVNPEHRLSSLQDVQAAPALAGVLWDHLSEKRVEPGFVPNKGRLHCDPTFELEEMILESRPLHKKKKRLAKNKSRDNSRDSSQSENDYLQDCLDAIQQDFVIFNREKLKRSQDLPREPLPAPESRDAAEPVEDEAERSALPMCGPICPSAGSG
How it was run: as §1

Cc1ccccc1-n1c(C(C)Nc2nc(N)nc3nc[nH]c23)nc2cccc(C)c2c1=O (centres unmarked) [CAL-130]
Percent of Control Binding (ABL1(T315I)): 100%
Percent of Control Binding (ASK1): 100%
Percent of Control Binding (BLK): 100%
Percent of Control Binding (CAMKK2): 18%
Percent of Control Binding (CDK3): 100%
Percent of Control Binding (CDK9): 100%
Percent of Control Binding (CDKL3): 100%
Percent of Control Binding (CSF1R): 100%
Percent of Control Binding (CSNK2A2): 100%
Percent of Control Binding (EGFR(G719C)): 100%
Percent of Control Binding (FLT3(N841I)): 100%
Percent of Control Binding (GAK): 100%
Percent of Control Binding (GSK3B): 100%
Percent of Control Binding (INSR): 100%
Percent of Control Binding (JNK3): 100%
Percent of Control Binding (LATS1): 100%
Percent of Control Binding (LZK): 100%
Percent of Control Binding (MST4): 100%
Percent of Control Binding (MYO3A): 100%
Percent of Control Binding (NEK9): 100%
Percent of Control Binding (PAK1): 100%
Percent of Control Binding (PHKG2): 100%
Percent of Control Binding (PLK3): 100%
Percent of Control Binding (RPS6KA2): 100%
Percent of Control Binding (SNARK): 100%
Percent of Control Binding (SRPK2): 100%
Percent of Control Binding (TGFBR2): 100%
Percent of Control Binding (TNK1): 100%
Percent of Control Binding (YANK3): 100%
